Measurements from ChEMBL document CHEMBL1201862, “PubChem BioAssay data set” (2004).
Calls of active or inactive are those of the source.

Experiments:
[1] = target: T1, High affinity choline transporter 1 (Homo sapiens, UniProt Q9GZV3); assay: CHT inhibitors reducing choline uptake, dose response, orthogonal assay for CHT inhibitor project, cell-based, 3H-choline uptake, radioactive, HEK293 CHT LV-AA (AID 651756); format: functional
T1 sequence (Q9GZV3 whole entry): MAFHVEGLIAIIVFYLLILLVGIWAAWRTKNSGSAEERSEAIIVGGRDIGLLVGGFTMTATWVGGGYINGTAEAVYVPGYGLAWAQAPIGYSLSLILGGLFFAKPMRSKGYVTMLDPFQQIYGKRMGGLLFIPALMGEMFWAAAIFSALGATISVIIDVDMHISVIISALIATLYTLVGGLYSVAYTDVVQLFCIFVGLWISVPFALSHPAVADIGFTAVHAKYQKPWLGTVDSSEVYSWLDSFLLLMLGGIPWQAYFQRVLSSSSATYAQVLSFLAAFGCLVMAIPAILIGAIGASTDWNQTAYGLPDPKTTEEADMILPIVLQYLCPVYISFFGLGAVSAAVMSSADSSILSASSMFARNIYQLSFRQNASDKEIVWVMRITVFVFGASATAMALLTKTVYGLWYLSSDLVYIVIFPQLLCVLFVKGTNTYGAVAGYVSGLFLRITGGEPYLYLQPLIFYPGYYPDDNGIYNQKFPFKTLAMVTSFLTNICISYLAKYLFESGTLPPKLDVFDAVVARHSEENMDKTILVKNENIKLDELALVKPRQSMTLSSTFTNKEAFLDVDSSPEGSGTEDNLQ

[2] = target: SWI/SNF-related matrix-associated actin-dependent regulator of chromatin subfamily A member 2 (Homo sapiens, UniProt P51531); assay: Luminescence-based cell-based high throughput dose response assay to identify activators of the function of SWI/SNF related, matrix associated, actin dependent regulator of chromatin, subfamily a, member 2 (SMARCA2, BRM).; format: functional
[3] = Counterscreen for activators of the function of SWI/SNF related, matrix associated, actin dependent regulator of chromatin, subfamily a, member 2 (SMARCA2, BRM): Luminescence-based cell-based high throughput dose response assay to identify non-selective compounds using the VP16 reporter assay.; format: functional
[4] = target: Arf-GAP with SH3 domain, ANK repeat and PH domain-containing protein 1 (Homo sapiens, UniProt Q9ULH1); format: functional;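 also: biochemical fluorescence polarization dose–response screen measuring inhibition of ASAP1; ASAP1 GAP domain stimulating GTP hydrolysis by truncated human ARF1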
Chain of Arf-GAP with SH3 domain, ANK repeat and PH domain-containing protein 1 (Q9ULH1 whole entry, the tested form may be a part): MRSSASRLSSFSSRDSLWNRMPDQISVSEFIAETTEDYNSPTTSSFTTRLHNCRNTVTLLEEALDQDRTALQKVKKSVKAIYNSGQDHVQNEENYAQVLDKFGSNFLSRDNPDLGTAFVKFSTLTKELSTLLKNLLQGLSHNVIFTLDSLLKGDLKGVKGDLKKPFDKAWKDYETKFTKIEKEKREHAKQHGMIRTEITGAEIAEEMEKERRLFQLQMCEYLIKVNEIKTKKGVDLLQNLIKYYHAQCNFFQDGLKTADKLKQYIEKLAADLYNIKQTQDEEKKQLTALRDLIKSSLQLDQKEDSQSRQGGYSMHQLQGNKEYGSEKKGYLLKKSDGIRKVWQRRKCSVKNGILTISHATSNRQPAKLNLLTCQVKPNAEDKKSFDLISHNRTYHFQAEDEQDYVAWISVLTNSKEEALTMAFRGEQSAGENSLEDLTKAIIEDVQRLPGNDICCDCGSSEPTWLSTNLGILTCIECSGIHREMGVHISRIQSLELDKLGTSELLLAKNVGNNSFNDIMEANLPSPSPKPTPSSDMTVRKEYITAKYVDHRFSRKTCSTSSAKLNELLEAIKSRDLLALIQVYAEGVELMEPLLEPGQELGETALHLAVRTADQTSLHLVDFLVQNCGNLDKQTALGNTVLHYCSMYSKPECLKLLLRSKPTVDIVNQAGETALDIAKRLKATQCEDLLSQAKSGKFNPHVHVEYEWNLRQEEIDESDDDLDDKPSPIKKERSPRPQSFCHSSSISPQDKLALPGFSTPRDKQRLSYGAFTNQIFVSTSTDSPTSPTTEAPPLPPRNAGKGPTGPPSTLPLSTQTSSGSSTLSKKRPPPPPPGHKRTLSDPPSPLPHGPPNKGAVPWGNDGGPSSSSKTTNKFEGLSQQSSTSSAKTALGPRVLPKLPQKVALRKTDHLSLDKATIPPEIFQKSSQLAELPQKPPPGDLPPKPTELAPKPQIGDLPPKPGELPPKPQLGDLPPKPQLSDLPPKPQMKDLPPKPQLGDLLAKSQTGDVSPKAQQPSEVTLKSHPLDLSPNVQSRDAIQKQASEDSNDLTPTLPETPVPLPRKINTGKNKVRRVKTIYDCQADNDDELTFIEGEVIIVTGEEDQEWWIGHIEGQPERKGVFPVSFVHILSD

[5] = target: ADP-ribosylation factor GTPase-activating protein 1 (Rattus norvegicus, UniProt Q62848); assay: Fluorescence polarization-based biochemical high throughput dose response screening assay to identify inhibitors of ADP-ribosylation factor GTPase activating protein 1 (ARFGAP1).; format: functional
Chain of ADP-ribosylation factor GTPase-activating protein 1 (Q62848 whole entry): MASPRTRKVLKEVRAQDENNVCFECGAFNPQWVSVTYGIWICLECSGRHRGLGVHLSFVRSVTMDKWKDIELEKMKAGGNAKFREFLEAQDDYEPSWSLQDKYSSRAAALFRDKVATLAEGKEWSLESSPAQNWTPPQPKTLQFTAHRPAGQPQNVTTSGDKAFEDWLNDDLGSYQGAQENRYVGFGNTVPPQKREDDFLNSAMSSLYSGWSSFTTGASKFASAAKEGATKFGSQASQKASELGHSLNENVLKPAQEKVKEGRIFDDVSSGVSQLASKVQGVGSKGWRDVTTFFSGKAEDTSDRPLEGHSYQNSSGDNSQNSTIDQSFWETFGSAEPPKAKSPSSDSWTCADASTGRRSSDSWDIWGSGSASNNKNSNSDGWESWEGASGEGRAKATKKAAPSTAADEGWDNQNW

[6] = target: T2, Beta-lactamase (Salmonella choleraesuis (strain SC-B67), UniProt Q5J463)
T2 sequence (Q5J463 whole entry): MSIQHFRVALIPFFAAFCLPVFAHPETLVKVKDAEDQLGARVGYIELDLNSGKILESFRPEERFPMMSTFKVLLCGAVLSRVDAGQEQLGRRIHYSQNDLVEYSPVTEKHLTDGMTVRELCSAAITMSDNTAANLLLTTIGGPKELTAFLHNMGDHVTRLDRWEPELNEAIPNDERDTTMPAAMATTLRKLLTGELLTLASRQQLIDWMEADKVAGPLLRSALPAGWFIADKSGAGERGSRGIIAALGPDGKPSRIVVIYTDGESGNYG

[7] = target: T3, Beta-lactamase (Pseudomonas aeruginosa, UniProt Q79MP6)
T3 sequence (Q79MP6 whole entry): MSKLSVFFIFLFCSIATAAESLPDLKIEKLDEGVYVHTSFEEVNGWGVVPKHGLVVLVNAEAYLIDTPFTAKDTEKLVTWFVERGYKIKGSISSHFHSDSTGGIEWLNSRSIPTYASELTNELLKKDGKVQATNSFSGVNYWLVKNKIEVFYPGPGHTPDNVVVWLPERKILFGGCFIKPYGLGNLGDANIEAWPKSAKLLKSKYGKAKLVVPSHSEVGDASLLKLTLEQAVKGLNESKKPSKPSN

[8] = HEK293 cell viability, dose response, counter-screen for EBV LMP1 inhibitor project, dry powder, set 2 (AID 624374); format: functional
[9] = target: T4, Small ubiquitin-related modifier 2 (Homo sapiens, UniProt P61956); assay: SUMO2–SIM peptide binding inhibitors, dose response, selectivity assay for SUMO1 interaction inhibitor project, biochemical, fluorescence polarization, uHTS hits (AID 624385); format: functional; details: read-out: IC50_Mean
T4 sequence (P61956 whole entry): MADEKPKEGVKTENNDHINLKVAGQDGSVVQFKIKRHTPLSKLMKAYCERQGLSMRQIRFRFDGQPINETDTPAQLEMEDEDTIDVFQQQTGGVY

[10] = target: T5, Small ubiquitin-related modifier 1 (Homo sapiens, UniProt P63165); assay: inhibitors of SUMO1 partner interactions, dose response, biochemical, FRET (AID 624383); format: functional; details: read-out: IC50_Mean
T5 sequence (P63165 whole entry): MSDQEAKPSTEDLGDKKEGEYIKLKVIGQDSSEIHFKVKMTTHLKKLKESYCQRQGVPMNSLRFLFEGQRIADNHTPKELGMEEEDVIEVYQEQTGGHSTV

[11] = target: Genome polyprotein (dengue virus type 2, UniProt P29990); assay: Dengue-2 NS5 methyltransferase inhibitors, primary screen, biochemical, confirmation dose response (AID 588689); format: functional
Chain of Genome polyprotein (P29990 2492-3391 limits assumed): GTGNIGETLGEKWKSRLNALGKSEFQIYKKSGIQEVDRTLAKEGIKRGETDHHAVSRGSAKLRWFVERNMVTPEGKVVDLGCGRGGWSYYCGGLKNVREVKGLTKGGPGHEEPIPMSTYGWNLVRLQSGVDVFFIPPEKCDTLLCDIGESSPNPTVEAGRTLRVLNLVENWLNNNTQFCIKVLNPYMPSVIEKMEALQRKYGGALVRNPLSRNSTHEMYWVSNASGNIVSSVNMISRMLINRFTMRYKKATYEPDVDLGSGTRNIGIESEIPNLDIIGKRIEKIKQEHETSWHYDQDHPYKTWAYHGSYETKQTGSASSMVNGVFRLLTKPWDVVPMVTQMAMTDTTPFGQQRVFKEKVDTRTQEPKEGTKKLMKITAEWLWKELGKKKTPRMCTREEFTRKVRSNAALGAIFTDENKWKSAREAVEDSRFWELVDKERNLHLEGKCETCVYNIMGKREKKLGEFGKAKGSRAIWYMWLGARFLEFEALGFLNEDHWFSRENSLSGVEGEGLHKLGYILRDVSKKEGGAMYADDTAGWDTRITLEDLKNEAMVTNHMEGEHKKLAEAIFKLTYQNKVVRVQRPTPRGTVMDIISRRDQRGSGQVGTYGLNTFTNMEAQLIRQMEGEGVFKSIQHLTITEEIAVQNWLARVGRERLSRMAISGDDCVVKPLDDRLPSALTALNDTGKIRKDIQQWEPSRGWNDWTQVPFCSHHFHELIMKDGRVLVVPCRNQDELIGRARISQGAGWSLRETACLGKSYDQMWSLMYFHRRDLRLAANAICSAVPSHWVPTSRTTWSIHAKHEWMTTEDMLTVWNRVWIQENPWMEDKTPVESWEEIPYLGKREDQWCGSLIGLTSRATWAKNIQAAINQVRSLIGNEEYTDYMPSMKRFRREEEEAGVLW

[12] = target: T5, Small ubiquitin-related modifier 1; assay: inhibitors of SUMO1 peptide binding, dose response, biochemical, fluorescence polarization, uHTS hits (AID 624382); format: functional; details: read-out: IC50_Mean
[13] = target: DNA (cytosine-5)-methyltransferase 1 (Homo sapiens, UniProt P26358); assay: DNMT1 methyltransferase inhibitors, confirmation, biochemical, fluorescent molecular beacon (AID 602386); format: functional
[14] = target: T4, Small ubiquitin-related modifier 2; assay: inhibitors of SUMO2 protein-protein interaction, dose response, selectivity assay for SUMO1 interaction inhibitor project, biochemical, FRET, human SUMO2, uHTS hits (AID 624384); format: functional; details: read-out: IC50_Mean
[15] = ARNT/TACC3 interaction disruptors, potency, confirmation, biochemical, AlphaScreen, cherry-picked samples (AID 651703); format: functional, Homo sapiens;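 also: His-tagged ARNT PAS-B domain paired with GST-TACC3 E629A dimer coactivator fragment; potency of inhibitors that break up the complex and lower AlphaScreen signal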
[16] = target: Dual specificity protein phosphatase 3 (Homo sapiens, UniProt P51452); assay: VHR phosphatase inhibition, dose response, selectivity assay for STEP inhibitor project, biochemical (AID 602374); format: functional; details: read-out: IC50_Mean
[17] = target: Tyrosine-protein phosphatase non-receptor type 5 (Homo sapiens, UniProt P54829); assay: STEP phosphatase inhibitors, confirmation, biochemical, fluorescence intensity, uHTS hits (AID 602372); format: functional; details: read-out: IC50_Mean
[18] = target: T6, Histone-lysine N-methyltransferase NSD2 (Homo sapiens, UniProt O96028); format: biochemical
T6 sequence (O96028 whole entry): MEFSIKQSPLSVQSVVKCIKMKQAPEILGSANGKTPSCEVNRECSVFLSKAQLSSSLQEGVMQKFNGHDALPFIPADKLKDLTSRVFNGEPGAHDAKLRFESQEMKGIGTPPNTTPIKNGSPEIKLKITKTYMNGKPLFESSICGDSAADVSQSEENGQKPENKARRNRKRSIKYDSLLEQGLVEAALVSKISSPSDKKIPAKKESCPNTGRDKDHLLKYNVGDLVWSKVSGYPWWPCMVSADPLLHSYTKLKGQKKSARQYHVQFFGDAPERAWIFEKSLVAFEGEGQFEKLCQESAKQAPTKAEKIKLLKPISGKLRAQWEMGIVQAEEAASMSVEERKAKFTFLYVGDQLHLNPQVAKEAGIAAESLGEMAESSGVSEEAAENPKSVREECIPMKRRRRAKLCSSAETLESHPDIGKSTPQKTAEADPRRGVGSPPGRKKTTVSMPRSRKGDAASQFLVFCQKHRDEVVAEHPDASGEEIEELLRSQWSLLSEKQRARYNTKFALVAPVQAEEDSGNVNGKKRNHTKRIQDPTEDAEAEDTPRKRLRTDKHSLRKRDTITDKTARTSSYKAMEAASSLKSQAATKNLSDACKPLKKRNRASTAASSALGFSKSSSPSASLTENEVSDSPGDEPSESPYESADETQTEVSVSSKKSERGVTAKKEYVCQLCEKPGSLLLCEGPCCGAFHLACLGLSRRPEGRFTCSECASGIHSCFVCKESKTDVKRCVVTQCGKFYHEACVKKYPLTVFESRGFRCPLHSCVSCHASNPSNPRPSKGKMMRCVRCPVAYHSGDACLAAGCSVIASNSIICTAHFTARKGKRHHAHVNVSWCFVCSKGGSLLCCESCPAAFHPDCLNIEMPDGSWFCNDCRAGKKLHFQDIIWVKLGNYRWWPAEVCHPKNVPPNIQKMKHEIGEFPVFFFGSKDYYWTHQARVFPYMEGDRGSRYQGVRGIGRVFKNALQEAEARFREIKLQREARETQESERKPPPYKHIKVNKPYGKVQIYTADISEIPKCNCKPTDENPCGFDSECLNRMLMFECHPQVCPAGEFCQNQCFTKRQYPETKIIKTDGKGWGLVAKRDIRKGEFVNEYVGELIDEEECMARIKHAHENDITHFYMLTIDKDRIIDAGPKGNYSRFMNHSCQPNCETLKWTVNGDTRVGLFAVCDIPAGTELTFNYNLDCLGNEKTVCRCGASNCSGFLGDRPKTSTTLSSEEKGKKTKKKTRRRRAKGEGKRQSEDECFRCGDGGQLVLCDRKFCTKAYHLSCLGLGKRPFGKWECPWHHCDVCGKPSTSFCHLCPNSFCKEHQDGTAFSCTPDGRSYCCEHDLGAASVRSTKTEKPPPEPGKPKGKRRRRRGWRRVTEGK

[19] = target: Tyrosine-protein phosphatase non-receptor type 11 (Homo sapiens, UniProt Q06124); assay: SHP2 phosphatase inhibition, dose response, selectivity assay for STEP inhibitor project, biochemical (AID 602367); format: functional; details: read-out: IC50_Mean
Chain of Tyrosine-protein phosphatase non-receptor type 11 (Q06124 whole entry): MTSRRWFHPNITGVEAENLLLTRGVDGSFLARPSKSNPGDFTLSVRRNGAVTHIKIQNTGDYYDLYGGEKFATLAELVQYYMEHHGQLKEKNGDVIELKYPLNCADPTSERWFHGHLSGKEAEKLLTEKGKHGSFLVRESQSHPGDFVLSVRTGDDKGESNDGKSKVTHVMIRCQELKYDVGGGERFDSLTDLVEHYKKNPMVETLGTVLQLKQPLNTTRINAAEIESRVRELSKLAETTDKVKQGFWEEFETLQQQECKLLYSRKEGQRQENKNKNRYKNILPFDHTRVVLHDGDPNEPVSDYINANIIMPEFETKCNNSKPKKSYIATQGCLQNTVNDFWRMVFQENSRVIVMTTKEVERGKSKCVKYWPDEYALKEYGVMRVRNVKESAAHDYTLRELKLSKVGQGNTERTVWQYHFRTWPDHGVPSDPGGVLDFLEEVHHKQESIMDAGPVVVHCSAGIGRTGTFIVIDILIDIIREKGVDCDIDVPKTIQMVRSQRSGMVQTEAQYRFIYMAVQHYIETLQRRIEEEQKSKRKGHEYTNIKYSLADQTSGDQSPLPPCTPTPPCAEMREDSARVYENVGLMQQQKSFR

[20] = target: T7, Long-chain-fatty-acid--AMP ligase FadD28 (Mycobacterium tuberculosis, UniProt P9WQ59); assay: Fluorescence polarization aasay to screen for inhibitors that compete for the binding of FadD28 to a bisubstrate Measured in Biochemical System Using Plate Reader - 2147-01_Inhibitor_Dose_CherryPick_Activity.; format: functional, Mycobacterium tuberculosis H37Rv
T7 sequence (P9WQ59 whole entry): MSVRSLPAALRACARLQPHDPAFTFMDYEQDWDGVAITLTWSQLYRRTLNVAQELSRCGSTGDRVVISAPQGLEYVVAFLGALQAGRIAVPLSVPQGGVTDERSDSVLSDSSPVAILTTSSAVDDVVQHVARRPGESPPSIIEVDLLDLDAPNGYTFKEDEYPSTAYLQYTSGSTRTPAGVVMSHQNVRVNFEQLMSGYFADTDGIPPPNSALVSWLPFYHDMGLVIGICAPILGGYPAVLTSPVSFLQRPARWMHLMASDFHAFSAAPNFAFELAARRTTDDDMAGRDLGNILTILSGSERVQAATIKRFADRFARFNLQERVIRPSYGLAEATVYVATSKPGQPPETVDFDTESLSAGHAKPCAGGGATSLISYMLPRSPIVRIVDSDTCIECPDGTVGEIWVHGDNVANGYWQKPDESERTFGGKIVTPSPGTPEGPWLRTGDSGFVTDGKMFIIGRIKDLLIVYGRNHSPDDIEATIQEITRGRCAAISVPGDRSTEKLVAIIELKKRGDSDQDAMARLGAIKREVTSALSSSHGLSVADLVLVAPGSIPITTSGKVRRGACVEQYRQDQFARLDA

[21] = target: T8, Beta-2 adrenergic receptor (Homo sapiens, UniProt P07550); assay: beta2AR agonists driving receptor internalization, dose response, cell-based, FAP fluorogen, flow cytometry, cherry pick 1 (AID 588763); format: functional
T8 sequence (P07550 whole entry): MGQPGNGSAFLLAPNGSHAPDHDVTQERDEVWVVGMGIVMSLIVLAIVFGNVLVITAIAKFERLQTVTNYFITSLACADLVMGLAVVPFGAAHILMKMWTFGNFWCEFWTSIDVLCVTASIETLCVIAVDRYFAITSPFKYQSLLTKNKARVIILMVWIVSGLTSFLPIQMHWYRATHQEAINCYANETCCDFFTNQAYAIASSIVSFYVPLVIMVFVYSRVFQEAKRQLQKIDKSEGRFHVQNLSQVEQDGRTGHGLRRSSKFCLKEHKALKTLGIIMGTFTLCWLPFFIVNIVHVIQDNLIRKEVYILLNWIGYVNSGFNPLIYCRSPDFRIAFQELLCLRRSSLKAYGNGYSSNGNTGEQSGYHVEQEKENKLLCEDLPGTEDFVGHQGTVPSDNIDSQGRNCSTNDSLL

[22] = target: T8, Beta-2 adrenergic receptor; assay: Dose response for HTS for Beta-2AR agonists via FAP method from Powderset3.; format: functional
[23] = target: T2, Beta-lactamase; assay: Epi-absorbance-based counterscreen for selective VIM-2 inhibitors: dose response biochemical high throughput screening assay to identify inhibitors of TEM-1 serine-beta-lactamase.
[24] = target: T9, Beta Lactamase (Pseudomonas aeruginosa, UniProt Q932Y6); assay: VIM-2 metallo-beta-lactamase inhibitor potency, dose response, biochemical, epi-absorbance readout, selective inhibitors (AID 1919)
T9 sequence (Q932Y6 whole entry): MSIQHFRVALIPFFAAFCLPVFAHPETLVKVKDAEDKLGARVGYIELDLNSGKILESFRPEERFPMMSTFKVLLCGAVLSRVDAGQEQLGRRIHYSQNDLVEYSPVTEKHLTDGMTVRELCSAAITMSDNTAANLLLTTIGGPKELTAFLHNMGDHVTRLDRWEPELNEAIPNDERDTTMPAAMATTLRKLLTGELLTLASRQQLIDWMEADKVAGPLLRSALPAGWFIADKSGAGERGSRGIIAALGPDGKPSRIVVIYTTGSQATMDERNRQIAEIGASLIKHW

[25] = target: T3, Beta-lactamase; assay: IMP-1 metallo-beta-lactamase inhibitors, dose response, selectivity assay for VIM-2 inhibitor project, biochemical, epi-absorbance (AID 1920)
[26] = target: T9, Beta Lactamase; assay: VIM-2 inhibitor FRET-based artefact check, dose response, artefact control for selective VIM-2 inhibitor project, biochemical, FRET readout, CCF2 substrate (AID 1926)
[27] = target: T3, Beta-lactamase; assay: […] counterscreen for selective VIM-2 inhibitors: dose response biochemical high throughput screening assay to identify inhibitors of IMP-1 metallo-beta-lactamase.
[28] = target: T10, Scavenger receptor class B member 1 (Mus musculus, UniProt Q61009); assay: inhibitors of SR-BI dependent HDL uptake, dose response, ldlA[mSR-BI] CHO cells, fluorescence plate reader, dry powder, set 9 (AID 623880); format: functional, cell-based
T10 sequence (Q61009 whole entry): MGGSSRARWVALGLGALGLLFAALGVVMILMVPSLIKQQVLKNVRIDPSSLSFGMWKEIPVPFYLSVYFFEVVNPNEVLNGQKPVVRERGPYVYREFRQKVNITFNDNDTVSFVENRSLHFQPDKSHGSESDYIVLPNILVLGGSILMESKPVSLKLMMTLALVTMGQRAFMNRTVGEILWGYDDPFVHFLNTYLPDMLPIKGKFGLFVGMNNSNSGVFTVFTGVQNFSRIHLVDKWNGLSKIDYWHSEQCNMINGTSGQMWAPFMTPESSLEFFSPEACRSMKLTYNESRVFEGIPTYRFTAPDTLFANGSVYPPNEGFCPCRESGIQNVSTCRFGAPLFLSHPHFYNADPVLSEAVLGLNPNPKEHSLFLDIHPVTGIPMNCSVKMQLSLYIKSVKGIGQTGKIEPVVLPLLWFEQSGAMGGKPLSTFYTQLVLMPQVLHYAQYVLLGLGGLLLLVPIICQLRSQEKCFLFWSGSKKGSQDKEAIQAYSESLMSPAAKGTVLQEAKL

[29] = target: T10, Scavenger receptor class B member 1; assay: inhibitors of SR-BI-mediated HDL uptake, dose response, cell-based, ldlA[mSR-BI] CHO, DiI fluorescence, dry powder, set 10 (AID 624029); format: functional

For O=C(Nc1ccc(S(=O)(=O)Nc2ccccn2)cc1)c1ccc([N+](=O)[O-])cc1Cl, the IC50 [1] was 3.85 µM (active).
For N#Cc1c(NCCN)nc(-c2ccco2)c2c1CCCC2, the EC50 [2] was 10.8 µM (inactive) and the EC50 [3] was > 91.2 µM (inactive).
With CCCCOc1cccc2c(=O)n(CC(=O)Nc3ccc4c(c3)OCCO4)ccc12 the IC50 [4] was 18.3 µM (inactive) and the IC50 [5] was 36.8 µM (inactive).
For COc1ccc(-c2cc(=O)oc3c(C)c(OCC(=O)NCCCn4ccnc4)ccc23)cc1, the IC50 [6] was > 59.6 µM (inactive) and the IC50 [7] was > 59.6 µM (inactive).
Compound COc1ccccc1C(=O)Nc1ccc2c(c1)C(=O)N(C)[C@@H]1CC[C@H](CC(=O)NCCc3ccncc3)O[C@H]1CO2 has an AbsAC35 [8] of 153.61 µM.
For CN(c1ccccc1)c1ccc(/C=C(/CCC(=O)O)c2nc3ccccc3s2)cc1[N+](=O)[O-], the IC50 [9] was 6.2 µM (active), the IC50 [10] was 51.8 µM (inactive) and the IC50 [11] was 48.5 µM (active). The IC50 [12] was 11.1 µM (active), the IC50 [13] was 9.98 µM (active) and the IC50 [14] was > 66 µM (inactive).
In the case of C[C@H]1CN([C@@H](C)CO)C(=O)c2cc(NC(=O)Nc3cccc4ccccc34)ccc2O[C@@H]1CN(C)C(=O)Nc1ccc(C(F)(F)F)cc1, the AC50 [15] was 108 µM (active).
With CC(C(=O)Nc1ccc(O)cc1C(=O)O)N1C(=O)/C(=C\c2cccs2)SC1=S (stereo not given) the IC50 [16] was 5.64 µM (active), the IC50 [11] was 47.9 µM (active) and the IC50 [17] was 20.5 µM (inactive). For the same compound, the AC50 [18] was > 20 µM (inactive), the IC50 [19] was 1.5 µM (active) and the AC50 [20] was 49.3 µM (active).
In the case of COc1ccc(OC)c(CCNC(=O)C2CCN(c3nnc(-n4cccc4)s3)CC2)c1, the EC50 [21] was 2.85 µM (active) and the EC50 [22] was 1.51 µM (active).
With CCc1nnc(S)n1/N=C/c1ccc(NC(C)=O)cc1 the IC50 [23] was > 59.6 µM (inactive), the IC50 [24] was 6.32 µM (active) and the IC50 [25] was > 59.6 µM (inactive). For the same compound, the IC50 [26] was 2.08 µM (active) and the IC50 [27] was > 59.6 µM (inactive).
In the case of CC(C)CN(C(=O)COC(=O)C12CC3CC(CC(O)(C3)C1)C2)C1CCS(=O)(=O)C1 (stereo not given), the AC50 [28] was 0.209 µM (active) and the AC50 [29] was 0.252 µM (active).
